The record followed here is article PMC10052652 (Molecules, 2023).

The nature of assay [1]: DPPH radical scavenging assay. Here is the method:
DPPH• (1-1-diphenyl 2-picryl hydrazyl) assay
This method is based on the spectrophotometric assay using the stable radical, DPPH•, as a reagent. First, 20 µL of each sample (4 mg/mL) was mixed with 180 µL of 0.1 mM DPPH• in methanol, in plates, after an incubation of 25 min in the dark. Absorbance was measured at 517 nm. Ascorbic acid was used as the reference compound. The radical-scavenging activities of molecules, expressed as a percentage inhibition of DPPH•, were calculated according to the following formula: Inhibition (%) = [(A control − A sample)/A control] × 100 where A is the absorbance determined at 517 nm. The absorbance of the solvent and DPPH• radical without the molecule was measured as the control.

The nature of assay [2]: ABTS radical cation scavenging assay. Here is the method: ABTS (2,2′-azinobis-3-ethylbenzothiazoline-6-sulfonate) assay
The radical scavenging capacity of antioxidants for the ABTS radical cation was evaluated following this method: ABTS was prepared by adding 7 mM solution of ABTS at pH 7.4 (5 mM NaH2PO4, 5 mM Na2HPO4, and 154 mM NaCl) with 2.5 mM potassium persulfate. The mixture was stored at room temperature for 16 h in the dark before use and prepared […]. Once diluted with persulfate buffer, the absorbance of the mixture yielded an absorbance value of 0.70 ± 0.05 units at 734 nm. Then, 20 µL of each tested sample was mixed with fresh ABTS solution (180 µL), then the absorbance was measured 6 min after the initial mixing. Ascorbic acid was used as a standard. The capacity of free radical scavenging was expressed as a percentage of the inhibition values. The percentage of inhibition is calculated using the same expression employed in the DPPH assay.

The IC50 is the concentration that gives 50% inhibition. A lower IC50 goes with greater potency.

Each structure is given as a SMILES string.

On to `O=C1O[C@H]([C@@H](O)CO)C(O)=C1O` [Vitamin C, Ascorbic acid, reference compound], for which the IC50 in assay [1] stood at 2300 ± 200 nM; in assay [2] it was 2200 ± 200 nM.
